The values below come from patent US12331040B2 (Karyopharm Therapeutics Inc., priority 2013, dated 2025).

SMILES strings stand for the structures. Read-outs that look alike come from different tables or passages of the source.

What all share (assay): MTT cell proliferation assay
What all share (assay type): cell-based

For test [1], the system named is 3T3 cells. As to conditions: Mus musculus, NIH3T3, approximately 64-72 hours incubation. The gist of the method:
(§1)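 Cytotoxicity was measured by MTT: OD490 of the solubilized formazan after roughly 4 h with MTT reagent, reported as mean percent inhibition relative to the negative control. Test compounds covered eight concentrations between 1 nM and 30 μM, added to 5,000–10,000 cells per well that had attached overnight.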

The subject of test [2] is MS751 cells. As to conditions: Homo sapiens, MS751, MS751 cells, approximately 64-72 hours incubation. The gist of the method: as §1
Test [3] concerns Z138 cells. As to conditions: Homo sapiens, Z-138, Z138 cells, approximately 64-72 hours incubation. The gist of the method:
as §1

[4] abbreviates: read-out: MTT Assay IC50 MS-751.
Setting [5] is: read-out: MTT Assay IC50, MS-751.
[6] abbreviates: read-out: MTT Assay IC50, Z-138.

As to `COc1ccc(-c2ccc(S(=O)(=O)N3CCOCC3)cc2)c2cc(CNC(=O)/C=C/c3ccc(N)nc3)oc12` [Compound 554, (E)-3-(6-aminopyridin-3-yl)-N-((7-methoxy-4-(4-(morpholinosulfonyl)phenyl)benzofuran-2-yl)methyl)acrylamide], the IC50 in test [1] (read-out: MTT Assay IC50 3T3) is greater than 10000 nM; in test [2] (setting [4]) it was 100 to 5000 nM; in test [3] (read-out: MTT Assay IC50 Z-138), less than 100 nM.
Turning to `Nc1ccc(/C=C/C(=O)NCCc2cc3cc(-c4ccc(C(=O)N5CCC(F)(F)CC5)cc4)cc(C(F)(F)F)c3o2)cn1` [Compound 691, (E)-3-(6-aminopyridin-3-yl)-N-(2-(5-(4-(4,4-difluoropiperidine-1-carbonyl)phenyl)-7-(trifluoromethyl)benzofuran-2-yl)ethyl)acrylamide], the IC50 is 100 to 5000 nM in test [1] (read-out: MTT Assay IC50, 3T3); 100 to 5000 nM in test [2] (setting [5]); less than 100 nM in test [3] (setting [6]).
`Nc1ccc(/C=C/C(=O)NCc2cc3cc(-c4ccc(C(=O)N5CC[C@@H](F)C5)cc4)cc(Cl)c3o2)cn1` [Compound 523, (R,E)-3-(6-aminopyridin-3-yl)-N-((7-chloro-5-(4-(3-fluoropyrrolidine-1-carbonyl)phenyl)benzofuran-2-yl)methyl)acrylamide]: the IC50 in test [1] (read-out: MTT Assay IC50 3T3), in test [2] (setting [4]) and in test [3] (read-out: MTT Assay IC50 Z-138) was greater than 10000 nM each time.
Consider `CC1(F)CCN(C(=O)c2ccc(-c3cc(C(F)(F)F)c4oc(CNC(=O)/C=C/c5ccc(N)nc5)cc4c3)nc2)C1` (single isomer, unassigned) [Compound 654, (E)-3-(6-aminopyridin-3-yl)-N-((5-(5-(3-fluoro-3-methylpyrrolidine-1-carbonyl)pyridin-2-yl)-7-(trifluoromethyl)benzofuran-2-yl)methyl)acrylamide], for which the values for the IC50 in test [1] (read-out: MTT Assay IC50 3T3), in test [2] (setting [4]) and in test [3] (read-out: MTT Assay IC50 Z-138) were greater than 10000 nM, less than 100 nM and less than 100 nM, respectively.
In the case of `Nc1ccc(/C=C/C(=O)NCCc2cc3cc(-c4ccc(C(=O)N5CCOCC5)cc4)cc(Cl)c3o2)cn1` [Compound 532, (E)-3-(6-aminopyridin-3-yl)-N-(2-(7-chloro-5-(4-(morpholine-4-carbonyl)phenyl)benzofuran-2-yl)ethyl)acrylamide], the IC50 in test [1] (read-out: MTT Assay IC50 3T3), in test [2] (setting [4]) and in test [3] (read-out: MTT Assay IC50 Z-138) was less than 100 nM each time.
For the molecule `Nc1ccc(/C=C/C(=O)NCc2cc3cc(-c4ccc(C(=O)N5CCC(F)(F)CC5)cc4)cc(-c4cccc(C(F)(F)F)c4)c3o2)cn1` [Compound 731, (E)-3-(6-aminopyridin-3-yl)-N-((5-(4-(4,4-difluoropiperidine-1-carbonyl)phenyl)-7-(3-(trifluoromethyl)phenyl)benzofuran-2-yl)methyl)acrylamide], the IC50 is 100 to 5000 nM in test [1] (read-out: MTT Assay IC50, 3T3); 100 to 5000 nM in test [2] (setting [5]); less than 100 nM in test [3] (setting [6]).
Consider `Nc1ccc(/C=C/C(=O)NCc2cc3cc(-c4cnc(C(=O)N5CCOCC5)c(F)c4)cc(Cl)c3o2)cn1` [Compound 544, (E)-3-(6-aminopyridin-3-yl)-N-((7-chloro-5-(5-fluoro-6-(morpholine-4-carbonyl)pyridin-3-yl)benzofuran-2-yl)methyl)acrylamide], for which the values for the IC50 in test [1] (read-out: MTT Assay IC50 3T3), in test [2] (setting [4]) and in test [3] (read-out: MTT Assay IC50 Z-138) were greater than 10000 nM, 100 to 5000 nM and 100 to 5000 nM, respectively.
Take `CC1(F)CCN(C(=O)c2ccc(-c3cc(C(F)(F)F)c4oc(CNC(=O)/C=C\c5ccc(N)nc5)cc4c3)nc2)C1` (single isomer, unassigned) [Compound 657, (Z)-3-(6-aminopyridin-3-yl)-N-((5-(5-(3-fluoro-3-methylpyrrolidine-1-carbonyl)pyridin-2-yl)-7-(trifluoromethyl)benzofuran-2-yl)methyl)acrylamide]: the IC50 is greater than 10000 nM in test [1] (read-out: MTT Assay IC50, 3T3); 100 to 5000 nM in test [2] (setting [5]); 100 to 5000 nM in test [3] (setting [6]).
As to `Nc1ccc(/C=C/C(=O)NCc2cc3cc(-c4ccc(C(=O)N5CCOCC5)cn4)cc(-c4ccc(F)cc4)c3o2)cn1` [Compound 568, (E)-3-(6-aminopyridin-3-yl)-N-((7-(4-fluorophenyl)-5-(5-(morpholine-4-carbonyl)pyridin-2-yl)benzofuran-2-yl)methyl)acrylamide], the values for the IC50 in test [1] (read-out: MTT Assay IC50 3T3), in test [2] (setting [4]) and in test [3] (read-out: MTT Assay IC50 Z-138) were 100 to 5000 nM, less than 100 nM and less than 100 nM, respectively.
Take `Nc1ccc(/C=C/C(=O)NCc2cc3cc(-c4ncc(C(=O)N5CCC(F)(F)CC5)cn4)cc(C(F)(F)F)c3o2)cn1` [Compound 652, (E)-3-(6-aminopyridin-3-yl)-N-((5-(5-(4,4-difluoropiperidine-1-carbonyl)pyrimidin-2-yl)-7-(trifluoromethyl)benzofuran-2-yl)methyl)acrylamide]: the results for the IC50 in test [1] (read-out: MTT Assay IC50 3T3), in test [2] (setting [4]) and in test [3] (read-out: MTT Assay IC50 Z-138) were greater than 10000 nM, 100 to 5000 nM and 100 to 5000 nM, respectively.
Consider `Nc1ccc(/C=C/C(=O)NCc2cc3cc(-c4ccc(C(=O)N5CCC(F)(F)CC5)cn4)cc(-c4ccc5cnccc5c4)c3o2)cn1` [Compound 672, (E)-3-(6-aminopyridin-3-yl)-N-((5-(5-(4,4-difluoropiperidine-1-carbonyl)pyridin-2-yl)-7-(isoquinolin-6-yl)benzofuran-2-yl)methyl)acrylamide], for which the IC50 in test [1] (read-out: MTT Assay IC50, 3T3) was greater than 10000 nM; in test [2] (setting [5]), 100 to 5000 nM; in test [3] (setting [6]) it was 100 to 5000 nM.
Take `Nc1ccc(/C=C/C(=O)NCc2cc3cc(-c4ccc(C(=O)N5CCC(F)(F)CC5)cc4)cc(-c4cc(F)cc(F)c4)c3o2)cn1` [Compound 734, (E)-3-(6-aminopyridin-3-yl)-N-((7-(3,5-difluorophenyl)-5-(4-(4,4-difluoropiperidine-1-carbonyl)phenyl)benzofuran-2-yl)methyl)acrylamide]: the IC50 is 100 to 5000 nM in test [1] (read-out: MTT Assay IC50, 3T3); less than 100 nM in test [2] (setting [5]); less than 100 nM in test [3] (setting [6]).
On to `Cc1noc(C)c1/C=C/C(=O)NCc1cc2cc(-c3ccc(C(=O)N4CCOCC4)cc3)cc(Cl)c2o1` [Compound 541, (E)-N-((7-Chloro-5-(4-(morpholine-4-carbonyl)phenyl)benzofuran-2-yl)methyl)-3-(3,5-dimethylisoxazol-4-yl)acrylamide], for which the IC50 was greater than 10000 nM in test [1] (read-out: MTT Assay IC50 3T3), 100 to 5000 nM in test [2] (setting [4]) and 100 to 5000 nM in test [3] (read-out: MTT Assay IC50 Z-138).
For the molecule `CN1CCN(C(=O)c2ccc(-c3cc(C(F)(F)F)c4oc(CNC(=O)/C=C/c5ccc(N)nc5)cc4c3)nc2)CC1` [Compound 565, (E)-3-(6-aminopyridin-3-yl)-N-((5-(5-(4-methylpiperazine-1-carbonyl)pyridin-2-yl)-7-(trifluoromethyl)benzofuran-2-yl)methyl)acrylamide], the IC50 is 100 to 5000 nM in test [1] (read-out: MTT Assay IC50 3T3), less than 100 nM in test [2] (setting [4]) and less than 100 nM in test [3] (read-out: MTT Assay IC50 Z-138).
`Nc1ccc(/C=C/C(=O)NCc2cc3cc(-c4ccc(C(=O)N5CCCCC5)cc4)cc(C(F)(F)F)c3o2)cn1` [Compound 595, (E)-3-(6-aminopyridin-3-yl)-N-((5-(4-(piperidine-1-carbonyl)phenyl)-7-(trifluoromethyl)benzofuran-2-yl)methyl)acrylamide]: the values for the IC50 in test [1] (read-out: MTT Assay IC50 3T3), in test [2] (setting [4]) and in test [3] (read-out: MTT Assay IC50 Z-138) were greater than 10000 nM, 100 to 5000 nM and 100 to 5000 nM, respectively.
Regarding `CC1(C)CN(C(=O)c2ccc(-c3cc(C(F)(F)F)c4oc(CNC(=O)/C=C/c5ccc(N)nc5)cc4c3)cc2)C1` [Compound 526, (E)-3-(6-aminopyridin-3-yl)-N-((5-(4-(3,3-dimethylazetidine-1-carbonyl)phenyl)-7-(trifluoromethyl)benzofuran-2-yl)methyl)acrylamide], the IC50 in test [1] (read-out: MTT Assay IC50 3T3) was greater than 10000 nM; in test [2] (setting [4]) it was 100 to 5000 nM; in test [3] (read-out: MTT Assay IC50 Z-138) it was 100 to 5000 nM.
In the case of `CN1CCN(C(=O)c2ccc(-c3cc(C(F)(F)F)c4oc(CNC(=O)/C=C/c5ccc(N)nc5)cc4c3)cc2)CC1` [Compound 561, (E)-3-(6-aminopyridin-3-yl)-N-((5-(4-(4-methylpiperazine-1-carbonyl)phenyl)-7-(trifluoromethyl)benzofuran-2-yl)methyl)acrylamide], the IC50 is 5000 to 10000 nM in test [1] (read-out: MTT Assay IC50 3T3), less than 100 nM in test [2] (setting [4]) and less than 100 nM in test [3] (read-out: MTT Assay IC50 Z-138).
For the molecule `Nc1ccc(/C=C/C(=O)NCc2cc3cc(-c4ccc(C(=O)N5CCC(F)(F)CC5)cn4)cc(OC(F)(F)F)c3o2)cn1` [Compound 663, (E)-3-(6-aminopyridin-3-yl)-N-((5-(5-(4,4-difluoropiperidine-1-carbonyl)pyridin-2-yl)-7-(trifluoromethoxy)benzofuran-2-yl)methyl)acrylamide], the IC50 in test [1] (read-out: MTT Assay IC50, 3T3) is 100 to 5000 nM; in test [2] (setting [5]), less than 100 nM; in test [3] (setting [6]) it was less than 100 nM.
For `CC1(C)CNCCN1C(=O)c1ccc(-c2cc(C(F)(F)F)c3oc(CNC(=O)/C=C/c4ccc(N)nc4)cc3c2)cc1` [Compound 575, (E)-3-(6-aminopyridin-3-yl)-N-((5-(4-(2,2-dimethylpiperazine-1-carbonyl)phenyl)-7-(trifluoromethyl)benzofuran-2-yl)methyl)acrylamide], the IC50 in test [1] (read-out: MTT Assay IC50 3T3) is greater than 10000 nM; in test [2] (setting [4]), 100 to 5000 nM; in test [3] (read-out: MTT Assay IC50 Z-138), 100 to 5000 nM.
Take `C[C@@H]1COCCN1C(=O)c1ccc(-c2cc(Cl)c3oc(CNC(=O)/C=C/c4ccc(N)nc4)cc3c2)cc1` [Compound 516, (R,E)-3-(6-aminopyridin-3-yl)-N-((7-chloro-5-(4-(3-methylmorpholine-4-carbonyl)phenyl)benzofuran-2-yl)methyl)acrylamide]: the figures for the IC50 in test [1] (read-out: MTT Assay IC50 3T3), in test [2] (setting [4]) and in test [3] (read-out: MTT Assay IC50 Z-138) were greater than 10000 nM, 100 to 5000 nM and 100 to 5000 nM, respectively.
With `Nc1ccc(/C=C/C(=O)NCc2cc3cc(-c4ccc(C(=O)N5CCC(F)(F)CC5)cc4F)cc(-c4ccc(C(F)(F)F)cc4)c3o2)cn1` [Compound 749, (E)-3-(6-aminopyridin-3-yl)-N-((5-(4-(4,4-difluoropiperidine-1-carbonyl)-2-fluorophenyl)-7-(4-(trifluoromethyl)phenyl)benzofuran-2-yl)methyl)acrylamide], the IC50 in test [1] (read-out: MTT Assay IC50, 3T3) is greater than 10000 nM; in test [2] (setting [5]), greater than 10000 nM; in test [3] (setting [6]) it was 100 to 5000 nM.
